Laboratory results as given in the NIST ThermoML archive (doi:10.1021/je0340755).

Assay: xn = mol fraction of the nth substance listed
Details: 101.3 kPa, Liquid; for viscosity: Capillary tube (Ostwald / Ubbelohde) method

CC(O)CCO (stereo not given) [1,3-butanediol] + O
Details | mass density, 318.15 K [kg/m3] | mass density, 328.15 K [kg/m3] | mass density, 338.15 K [kg/m3] | speed of sound, 318.15 K [m/s] | speed of sound, 328.15 K [m/s] | speed of sound, 338.15 K [m/s] | viscosity, 328.15 K [mPa·s] | viscosity, 338.15 K [mPa·s]
x2 = 0.045 | – | 980.01 | 972.67 | – | 1456.8 | 1438.1 | 17.94 | 11.63
x2 = 0.1445 | – | 982.02 | 974.54 | – | 1473 | 1452.7 | 15.5 | 9.961
x2 = 0.2499 | – | 984.33 | 976.7 | – | 1489.7 | 1468.1 | 12.68 | 8.015
x2 = 0.3526 | – | 986.62 | 978.84 | – | 1509.9 | 1486.2 | 9.939 | 6.116
x2 = 0.4519 | – | 988.88 | 980.99 | – | 1530.8 | 1506.1 | 7.454 | 4.415
x2 = 0.5035 | – | 990.12 | 982.18 | 1566.6 | 1542.3 | 1516.1 | 6.269 | 3.616
x2 = 0.5563 | 1001.18 | 991.47 | 983.48 | 1579.1 | 1554.1 | 1527.9 | 5.15 | 2.874
x2 = 0.6507 | 1003.55 | 993.99 | 985.94 | 1604.8 | 1579.6 | 1552 | 3.415 | 1.759
x2 = 0.7518 | 1005.28 | 996.11 | 988.14 | 1638.6 | 1612.2 | 1584.1 | 1.97 | 0.895
x2 = 0.8477 | 1004.06 | 995.8 | 988.28 | 1662.4 | 1638.8 | 1611.3 | 1.028 | 0.418
x2 = 0.9081 | 1000.51 | 993.31 | 986.44 | 1652.9 | 1635.3 | 1614.1 | 0.666 | 0.302
x2 = 0.9152 | 999.92 | 992.87 | 986.1 | 1649.3 | 1633 | 1612.4 | 0.636 | 0.299
x2 = 0.9253 | 999 | 992.19 | 985.58 | 1643 | 1628.7 | 1609.7 | 0.598 | 0.298
x2 = 0.9355 | 998 | 991.44 | 985 | 1635.1 | 1622.5 | 1606.3 | 0.565 | 0.301
x2 = 0.9521 | 996.21 | 990.11 | 983.95 | 1618.5 | 1610.6 | 1597.7 | 0.525 | 0.317
x2 = 0.9543 | 995.96 | 989.92 | 983.8 | 1616 | 1608.3 | 1596.6 | 0.521 | 0.32
x2 = 0.9597 | 995.33 | 989.45 | 983.44 | 1609.2 | 1603.1 | 1592.9 | 0.512 | 0.329
x2 = 0.9699 | 994.09 | 988.53 | 982.72 | 1594.8 | 1591.7 | 1585.4 | 0.5 | 0.348
x2 = 0.9804 | 992.76 | 987.55 | 981.96 | 1577.4 | 1578.7 | 1575.5 | 0.495 | 0.374
x2 = 0.9901 | 991.5 | 986.62 | 981.25 | 1558.9 | 1563.6 | 1565.5 | 0.496 | 0.403
x2 = 0.9924 | 991.2 | 986.41 | 981.09 | 1554.1 | 1559.6 | 1561.7 | 0.497 | 0.411
x2 = 0.9955 | 990.8 | 986.11 | 980.87 | 1547.5 | 1555 | 1558.4 | 0.499 | 0.422
